In patent US4267192A, “Method for treating inflammation” (priority 1980, dated 1981):

Key:
prostaglandin synthetase = biological target: T1, prostaglandin synthetase (Ovis aries, UniProt P05979); conditions: in words; cited from earlier work
T1 sequence (P05979 25-600): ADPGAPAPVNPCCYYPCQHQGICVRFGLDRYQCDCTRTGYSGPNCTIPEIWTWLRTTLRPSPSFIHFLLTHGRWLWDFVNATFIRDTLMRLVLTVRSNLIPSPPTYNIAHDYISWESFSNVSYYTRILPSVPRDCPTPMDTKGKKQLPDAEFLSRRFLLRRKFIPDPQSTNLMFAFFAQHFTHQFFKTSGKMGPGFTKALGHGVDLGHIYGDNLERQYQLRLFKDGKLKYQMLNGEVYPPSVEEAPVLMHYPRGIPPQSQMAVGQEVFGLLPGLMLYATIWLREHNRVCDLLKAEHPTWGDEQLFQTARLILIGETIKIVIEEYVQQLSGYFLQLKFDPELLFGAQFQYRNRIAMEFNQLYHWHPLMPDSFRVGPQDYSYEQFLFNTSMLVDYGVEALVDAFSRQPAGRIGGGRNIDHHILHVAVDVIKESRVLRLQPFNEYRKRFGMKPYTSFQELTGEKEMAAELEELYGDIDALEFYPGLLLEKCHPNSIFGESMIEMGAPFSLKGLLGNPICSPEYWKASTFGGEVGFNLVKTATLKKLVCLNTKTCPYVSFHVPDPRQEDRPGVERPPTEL

[1] = system: rat stomach (gastric ulcers, gastric swelling); conditions: especially in long-term therapy; in words; cited from earlier work
[2] = system: polyarthritis induced by Mycobacterium butyricum or tuberculosis in rats; conditions: rat; cited from earlier work
[3] = system: carrageenan-induced edema in the hind paw of the rat; experiment: rat carrageenan edema test (hind paw); assay type: in vivo, rat (male Sprague-Dawley); conditions: for Change in paw volume (ml) from 0-3 hr: mean ± S.E.; for % Change in paw edema: vs control
Experimental: (§1) Vehicle alone is administered as a control. Sixty minutes after drug administration edema is induced by an injection of 0.1 ml. of a 1% carrageenan solution is saline into the subplantar tissue of the rat's right hind paw. Two minutes later, paw volume is measured volumetrically with a plethysmograph and again 3 hours later. The mean volume of swelling for the control group is calculated and compared to the test groups. Percent change in paw edema is calculated and analyzed statistically (unpaired, Student's t-test).

[4] = system: carrageenan-induced edema in the hind paw of normal and adrenalectomized rats; experiment: carrageenan paw edema in normal and adrenalectomized rats; assay type: in vivo, rat; conditions: oral 300 mg/kg
Experimental: as §1
Normal rats received the same doses as adrenalectomized rats.

[5] = oral 270 mg/kg, Table 1 group d
[6] = oral 180 mg/kg, Table 1 group e
[7] = oral 120 mg/kg, Table 1 group f
[8] = oral 240 mg/kg, Table 1 group f
[9] = oral 480 mg/kg, Table 1 group f

CC(=O)Oc1ccccc1C(=O)O [Aspirin, aspirin, reference compound]
appreciable effects on prostaglandin synthetase activity (prostaglandin synthetase): appreciable effects on prostaglandin synthetase activity | gastric ulcerogenicity [1]: proven gastric ulcerogens | ED50 (adjuvant arthritis test), has been assessed [2]: approximately 140 mg/kg | estimated ED50 (carrageenan paw edema) ([3]; oral): ~110 mg/kg | Change in paw volume (ml) from 0-3 hr ([3]; oral 30 mg/kg, Table 1 group d): 0.63 ± 0.02 mL | % Change in paw edema ([3]; oral 30 mg/kg, Table 1 group d): -28% | Change in paw volume (ml) from 0-3 hr ([3]; oral 90 mg/kg, Table 1 group d): 0.54 ± 0.04 mL | % Change in paw edema ([3]; oral 90 mg/kg, Table 1 group d): -39% | Change in paw volume (ml) from 0-3 hr [3, 5]: 0.29 ± 0.10 mL | % Change in paw edema [3, 5]: -67% | % Inhibition ([4]; Adrenalectomized Rats): 34% | Edema (ml) ± S.E. ([4]; Adrenalectomized Rats): 0.64 ± .04 mL | animals died ([4]; Adrenalectomized Rats, footnote a): 1/6 | % Inhibition ([4]; Normal Rats): 44% | Mean Edema (ml) ± S.E. ([4]; Normal Rats): 0.52 ± .07 mL

CCOC(=O)C=C1c2ccccc2C=Cc2ccccc21 [EDCHA, ethyl(5H-dibenzo[a,d]cyclohepten-5-ylidene)acetate]
oral doses that inhibit carrageenan paw edema ([3]; oral): 10 to 180 mg/kg | Change in paw volume (ml) from 0-3 hr ([3]; oral 20 mg/kg, Table 1 group e): 1.11 ± 0.08 mL | % Change in paw edema ([3]; oral 20 mg/kg, Table 1 group e): -4% | Change in paw volume (ml) from 0-3 hr ([3]; oral 60 mg/kg, Table 1 group e): 0.98 ± 0.06 mL | % Change in paw edema ([3]; oral 60 mg/kg, Table 1 group e): -15% | Change in paw volume (ml) from 0-3 hr [3, 6]: 0.87 ± 0.04 mL | % Change in paw edema [3, 6]: -25%

COC(=O)C=C1c2ccccc2C=Cc2ccccc21 [MDCHA, Methyl(5H-dibenzo[a,d]cyclohepten-5-ylidene)acetate]
Change in paw volume (ml) from 0-3 hr ([3]; oral 60 mg/kg, Table 1 group f): 0.68 ± 0.08 mL | % Change in paw edema ([3]; oral 60 mg/kg, Table 1 group f): -8% | Change in paw volume (ml) from 0-3 hr [3, 7]: 0.59 ± 0.08 mL | % Change in paw edema [3, 7]: -20% | Change in paw volume (ml) from 0-3 hr [3, 8]: 0.68 ± 0.10 mL | % Change in paw edema [3, 8]: -8% | Change in paw volume (ml) from 0-3 hr [3, 9]: 0.59 ± 0.07 mL | % Change in paw edema [3, 9]: -20%
